Reference: patent US20080300554A1, “LUBRICANT FOR MEDICAL DEVICES” (APPLIED MEDICAL RESOURCES CORPORATION, priority 2007, published 2008)

Experiment: Lubricity durability after incubation in PBS at 70° C.
Format: physicochemical
Settings: PBS at 70° C. for 20 hours
Method: Lacking a direct assay for PEI, an indirect measure of cross-linking effectiveness was selected. This method involved measuring the stability of the cross-linked coating when incubated in PBS at 70° C. for 20 hours. […] It was assumed that this durability was only possible if cross-linking had immobilized the PEI into a cross-linked matrix. PVP which cannot participate in this cross-linking was free to diffuse through the matrix to maintain lubricity. This assumption was further validated when the covalently cross-linked coating tested as non toxic.
Primary amines react readily with epoxides to form a secondary amine alcohol. Therefore, a multifunctional epoxide has the capability of cross-linking PEI into an immobile matrix EGDE (Sigma Chemical, ethylene glycol diglycidyl ether, E27203 50% technical grade) is a diepoxide with this capability. EGDE is readily soluble in water and isopropanol and can be applied to a coated sheath by a simple dip into an EGDE solution. Effectiveness of EGDE as a cross-linker of PEI was evaluated at 0.1% and 0.5% in aqueous and isopropanol solutions. Evidence of cross-linking was determined by the durability of lubricity after incubation in phosphate buffered saline (PBS) for 20+ hours at 70° C.
This test consisted of incubation of 6 inch segments of the coated sheaths in phosphate buffered saline (PBS) in 18×150 mm test tubes at 70° C. for 20-24 hours. […]

Lubricity after incubation in PBS (lubricity durability)	Compound
showed lubricity durability	O=CCCCC=O [Glutaraldehyde]
showed lubricity durability	polyethyleneglycol diglycidyl ether
